Reference: patent US12344649B2, “Modulators of parathyroid hormone receptor (PTHR1)” (Flagship Pioneering Innovations VI, LLC, priority 2019, dated 2025)
Several values for one entry are separate records, joined by “and”; a condition that tells them apart may be missing. Equal entries are not always repeated. Where no end group is shown, it is not given here.

Legend:
Format in all cases: cell-based
PTHR1 [1] = biological target: T1, PTHR1 (Homo sapiens, UniProt Q03431); test: cAMP accumulation assay (HTRF) in CHO-K1/Ga15/PTHR1 cells; set-up: host or cells: CHO-K1 (recombinant line CHO-K1/Ga15/PTHR1); conditions: for Emax: CHO-K1, cAMP assay, fitted dose-response maximum; for EC50: read-out: −log10EC50 (converted)
T1 sequence (Q03431 27-593): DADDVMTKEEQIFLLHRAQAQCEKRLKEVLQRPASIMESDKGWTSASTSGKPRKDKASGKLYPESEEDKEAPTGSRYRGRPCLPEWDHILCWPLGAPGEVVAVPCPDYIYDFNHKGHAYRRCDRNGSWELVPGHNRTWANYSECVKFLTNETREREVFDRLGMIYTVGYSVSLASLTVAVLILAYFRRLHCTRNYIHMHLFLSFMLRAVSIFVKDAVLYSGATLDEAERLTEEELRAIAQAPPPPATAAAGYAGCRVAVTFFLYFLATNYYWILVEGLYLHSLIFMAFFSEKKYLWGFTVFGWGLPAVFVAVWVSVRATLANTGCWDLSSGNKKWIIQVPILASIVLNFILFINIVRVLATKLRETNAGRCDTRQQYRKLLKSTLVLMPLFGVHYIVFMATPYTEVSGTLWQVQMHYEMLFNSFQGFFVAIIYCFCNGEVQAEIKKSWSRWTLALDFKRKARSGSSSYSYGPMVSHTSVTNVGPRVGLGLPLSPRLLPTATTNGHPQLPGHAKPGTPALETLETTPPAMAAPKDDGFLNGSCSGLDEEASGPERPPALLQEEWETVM
Protocol: Cell suspension (5 μL) was seeded in 384-well plates at a density of 3,000 cells/well. Cells were treated with test samples (5 μL) or agonist (PTH 1-34) for 30 minutes at room temperature. cAMP-d2 working solution (5 μL) and anti-cAMP-Cryptate working solution (5 μL) were added to cells and incubated for 60 minutes at room temperature. The signal of the assay plate was read with PheraStar (BMG LABTECH, NC), an HTRF compatible reader.

PTHR1 [2] = biological target: T1, PTHR1; test: β-arrestin1 recruitment BRET assay in transfected HEK293T cells; set-up: Flag (N); Life Technologies Corporation, CA (arrestin cDNA); host or cells: HEK293T (CRL-3216, ATCC); conditions: β-arrestin1 recruitment, replicate plates; for −log10Slope: fitted curve slope; for EC50: read-out: −log10EC50 (converted)
Protocol: (§1) 18-24 hours post transfection, the Luciferase substrate Coelenterazine (NanoLight Technologies, AZ) was added to cells, a baseline BRET measurement was taken after 5 minutes incubation, and then serial dilutions of peptides, diluted in PBS (with 0.5 mM MgCl2+0.1% BSA FAF), were added to cells, and BRET signal was measured every 2 minutes for 30 minutes on Hybrid Multi-Mode Reader (Synergy Neo2, BioTek, VT). Seventy-five peptides were tested in the β-arrestin recruitment assay.

PTHR1 [3] = biological target: T1, PTHR1; test: β-arrestin2 recruitment BRET assay in transfected HEK293T cells; set-up: Flag (N); Life Technologies Corporation, CA (arrestin cDNA); host or cells: HEK293T (CRL-3216, ATCC); conditions: for −log10Slope / EC50: β-arrestin2 recruitment, replicate plates; for −log10Slope: fitted curve slope; for β-arrestin2 assay activity compared to control peptide: FIG. 2, PTH 1-34 positive control; for β2-arrestin: relative to PTH [1-34], HEK293T cells, BRET; for EC50: read-out: −log10EC50 (converted)
Protocol: as §1

[4] = cAMP assay, fitted dose-response curve
[5] = cAMP assay, fitted dose-response slope
[6] = cAMP accumulation, fitted curve slope, replicate plates
[7] = cAMP accumulation, replicate plates

Row | Sequence | Emax (PTHR1 [1]) | cAMP accumulation activity compared to control peptide (PTHR1 [1]; FIG. 3, PTH 1-34 positive control) | EC50 (PTHR1 [1]; [4]) | −log10Slope (PTHR1 [1]; [5]) | cAMP (PTHR1 [1]; relative to PTH [1-34], CHO-K1/Ga15/PTHR1 cells) | −log10Slope (PTHR1 [2]) | EC50 (PTHR1 [2]) | −log10Slope (PTHR1 [3]) | −log10Slope (PTHR1 [1]; [6]) | EC50 (PTHR1 [1]; [7]) | β-arrestin2 assay activity compared to control peptide (PTHR1 [3]) | β2-arrestin (PTHR1 [3]) | EC50 (PTHR1 [3])
1 | GIAVITLMVLRALLELQEIGRKITLELLKEYI [Peptide R2-51] | 3.99% | increased activity as compared to the control peptide | 0.105 nM | 10.26 | ++ | −1.524 | 29400 nM | −5.93 |  |  |  |  | 
2 | GVAELQLMHDLAKIRAEYELREMLLRLLEEIF [Peptide R2-1] |  |  |  |  |  | −0.1441 |  | −1.954 | −5.896 | 95.8 nM | increased activity as compared to control | ++ | 0.622 nM
3 | GVAMIQIMHDIAKIRAEYELREMLLRLLEEIF [Peptide R2-2] |  |  |  |  |  | −1.586 and −3.87 |  | 2.528 and −0.3398 | −3.889 | 187 nM |  |  | 
4 | GVAMLQIMHDLAKIKQELELKDSMKKILEDVL [Peptide R2-50] | 99.8% |  | 574 nM | −8.416 |  | −3.908 and −4.767 | 1200 nM | −1.169 and 10.26 |  |  | increased activity as compared to control | ++ | 0.0304 nM
5 | SVMMIQVMHDLAKIRAEYELREMLLRLLEEIF [Peptide R2-8] |  |  |  |  |  | −2.339 | 3.7 nM | 4.445 | −24.9299 | 31.9 nM | increased activity as compared to control | ++ | 0.349 nM
